Assay results from patent publication US9586907B2, “Isothiocyanate compounds, pharmaceutical compositions, and uses thereof” (priority 2006, dated 2017).
≈ marks a conversion by molar mass, not a printed value. Where two headings read alike, the source gives them in different places.

What was measured:
[1] = system: clinical isolates of bacteria and fungus (including yeasts); assay: General antimicrobial activity, semi-quantitative score on collection of clinical isolates; format: cell-based; as to General antimicrobial activity: key: −: indicating no activity; +++++: indicating highest activity
Protocol: The growth inhibitory effect of a number of various ITC compounds were tested on large collection of clinical isolates of bacteria and fungus (including yeasts), in order to establish a systematic structure-activity relationship for the ITC compounds. […] To assess the average activity for an individual ITC compound, the semi-quantitative score was calculated for each compound based on the number of sensitive bacterial strains at concentrations of 100 and 200 μM.

[2] = system: Bacillus cereus; assay: Activity of ITC compounds against Bacillus cereus; format: cell-based
[3] = system: Staphylococcus epidermidis; assay: Activity against Staphylococcus epidermidis (data not shown); format: cell-based
[4] = system: methicillin-resistant Staphylococcus aureus (MRSA); assay: Activity against MRSA (data not shown); format: cell-based
[5] = system: Candida crusei 6258^mdr; assay: microbe, parasite or virus in culture; conditions: read-out: Anti-Fungal Activity (MIC)
[6] = system: Candida albicans 90028; assay: Anti-fungal MIC, Candida albicans 90028; conditions: Candida albicans, 90028, read-out: Anti-Fungal Activity (MIC)
[7] = system: Candida albicans 90030; assay: Anti-fungal MIC, Candida albicans 90030; conditions: Candida albicans, 90030, read-out: Anti-Fungal Activity (MIC)
[8] = system: Candida dlabrata 250^mdr; assay: Anti-fungal MIC, Candida dlabrata 250^mdr; conditions: Candida, read-out: Anti-Fungal Activity (MIC)
[9] = system: Candida albicans 5108^mdr; assay: Anti-fungal MIC, Candida albicans 5108^mdr; conditions: Candida albicans, read-out: Anti-Fungal Activity (MIC)
[10] = system: Candida parapsilosis 22019; assay: Anti-fungal MIC, Candida parapsilosis 22019; conditions: 22019, read-out: Anti-Fungal Activity (MIC)
[11] = system: Aspergillus fumigatus Rit 1; assay: Anti-fungal MIC, Aspergillus fumigatus Rit 1; conditions: Aspergillus fumigatus, RIT1, read-out: Anti-Fungal Activity (MIC)
[12] = system: Aspergillus fumigatus Rit 11; assay: Anti-fungal MIC, Aspergillus fumigatus Rit 11; conditions: Aspergillus fumigatus, RIT11, read-out: Anti-Fungal Activity (MIC)
[13] = system: Aspergillus fumigatus Rit 21; assay: Anti-fungal MIC, Aspergillus fumigatus Rit 21; conditions: Aspergillus fumigatus, RIT21, read-out: Anti-Fungal Activity (MIC)
[14] = system: Cryptococcus neoformans CNH99; assay: Anti-fungal MIC, Cryptococcus neoformans CNH99; conditions: Cryptococcus neoformans, CNH99, read-out: Anti-Fungal Activity (MIC)
[15] = system: M. intracellularie; assay: MIC, M. intracellularie; format: cell-based
[16] = system: M. avium; assay: MIC, M. avium; format: cell-based; conditions: Mycobacterium avium
[17] = system: M. scrofulaceum; assay: MIC, M. scrofulaceum; format: cell-based; conditions: Mycobacterium scrofulaceum
[18] = system: M. cansassi; assay: MIC, M. cansassi; format: cell-based
[19] = system: M. fortuitum; assay: MIC, M. fortuitum; format: cell-based; conditions: Mycolicibacterium fortuitum
[20] = system: M. tuberculosis W; assay: MIC, M. tuberculosis W; format: cell-based; conditions: Mycobacterium tuberculosis, read-out: MIC
Protocol: (§1) Next, several of the bifunctional ITC compounds were tested for their ability to inhibit the growth of some clinical isolates of Mycobacteria, the results of which are summarized in Table 3 below.

[21] = system: M. tuberculosis H37Rv; assay: MIC, M. tuberculosis H37Rv; format: cell-based; conditions: Mycobacterium tuberculosis, read-out: MIC
Protocol: as §1

[22] = system: M. tuberculosis CDC1551; assay: MIC, M. tuberculosis CDC1551; format: cell-based; conditions: Mycobacterium tuberculosis, read-out: MIC
Protocol: as §1

[23] = system: M. tuberculosis P; assay: MIC, M. tuberculosis P; format: cell-based; conditions: Mycobacterium tuberculosis, read-out: MIC
Protocol: as §1

[24] = In vivo tolerance in mice; conditions: highest dose, 50 mg/kg
[25] = system: virus (92TH594); assay: Viral proliferation in PBMC, p24 viral antigen; format: cell-based; conditions: PBMC
[26] = system: Shigella sp., BK 12440; assay: MIC, Shigella sp., BK 12440; format: cell-based; conditions: Gram −, 24 hours of incubation, read-out: MIC
[27] = system: Shigella sp., BK 12441; assay: MIC, Shigella sp., BK 12441; format: cell-based; conditions: Gram −, 24 hours of incubation, read-out: MIC
[28] = system: Bacillus subtilis BK11590; assay: MIC, Bacillus subtilis BK11590; format: cell-based; conditions: Gram +, 24 hours of incubation, read-out: MIC
[29] = system: MRSA (Staphylococcus aureus) BK12060; assay: MIC, MRSA BK12060; conditions: Staphylococcus aureus, MRSA, 24 h
[30] = system: MRSA (Staphylococcus aureus) BK12064; assay: MIC, MRSA BK12064; conditions: Staphylococcus aureus, MRSA, 24 h
[31] = system: Escherichia coli K12; assay: MIC, Escherichia coli K12; conditions: Escherichia coli, K12, 24 h
[32] = system: Bacillus cereus 4342; assay: MIC, Bacillus cereus 4342; conditions: Bacillus cereus, 4342, 24 h
[33] = system: Escherichia coli BK12336; assay: MIC, Escherichia coli BK12336; conditions: Escherichia coli, BK12336, 24 h
[34] = system: Enterococcus sp., BK11936; assay: MIC, Enterococcus sp., BK11936; conditions: Enterococcus, 24 h
[35] = system: Enterococcus sp., BK11940; assay: MIC, Enterococcus sp., BK11940; conditions: Enterococcus, 24 h
[36] = system: Acinetobacter sp., BK12786; assay: MIC, Acinetobacter sp., BK12786; conditions: Acinetobacter, 24 h
[37] = system: Acinetobacter sp., BK12787; assay: MIC, Acinetobacter sp., BK12787; conditions: Acinetobacter, 24 h
[38] = system: Streptococcus sp., BK12233; assay: MIC, Streptococcus sp., BK12233; conditions: Streptococcus, 24 h
[39] = system: Streptococcus sp., BK12235; assay: MIC, Streptococcus sp., BK12235; conditions: Streptococcus, 24 h
[40] = system: Serattia marcescens BK12421; assay: MIC, Serattia marcescens BK12421; conditions: 24 h
[41] = system: Serattia marcescens BK12426; assay: MIC, Serattia marcescens BK12426; conditions: 24 h
[42] = system: Enterobacter cloacii BK12313; assay: MIC, Enterobacter cloacii BK12313; conditions: Enterobacter, BK12313, 24 h
[43] = system: Enterobacter cloacii BK12315; assay: MIC, Enterobacter cloacii BK12315; conditions: Enterobacter, BK12315, 24 h
[44] = system: Klebsiella pneumonii BK12260; assay: MIC, Klebsiella pneumonii BK12260; conditions: Klebsiella, BK12260, 24 h
[45] = system: Klebsiella pneumonii BK12261; assay: MIC, Klebsiella pneumonii BK12261; conditions: Klebsiella, BK12261, 24 h
[46] = system: Pseudomonas aeruginosa BK12347; assay: MIC, Pseudomonas aeruginosa BK12347; conditions: Pseudomonas aeruginosa, BK12347, 24 h
[47] = system: Pseudomonas aeruginosa BK12348; assay: MIC, Pseudomonas aeruginosa BK12348; conditions: Pseudomonas aeruginosa, BK12348, 24 h
[48] = system: Staphylococcus epidermidis BK12798; assay: MIC, Staphylococcus epidermidis BK12798; conditions: Staphylococcus epidermidis, BK12798, 24 h
[49] = system: Staphylococcus epidermidis BK12799; assay: MIC, Staphylococcus epidermidis BK12799; conditions: Staphylococcus epidermidis, BK12799, 24 h
[50] = Compound stability, independent experiments; format: physicochemical

S=C=NCc1ccc2ccc3cccc4ccc1c2c34 [Compound 33]
antimicrobial / growth-inhibitory activity (in words) ([1]; Table 1 screen): poor growth-inhibitory activity | activity against Bacillus cereus (in words) [2]: very efficient | activity against Staphylococcus epidermidis (in words) [3]: very efficient | activity against MRSA (in words) [4]: very efficient | MIC [5]: > 64 µg/mL | MIC [6]: 32 µg/mL (≈ 117 µM) | MIC [7]: 8 µg/mL (≈ 29.3 µM) | MIC [8]: 64 µg/mL (≈ 234 µM) | MIC [9]: > 64 µg/mL | MIC [10]: 32 µg/mL (≈ 117 µM) | MIC [11]: > 64 µg/mL | MIC [12]: > 64 µg/mL | MIC [13]: > 64 µg/mL | MIC [14]: 4 µg/mL (≈ 14.6 µM)

S=C=NCc1cccnc1 [Compound 30]
MIC [15]: 32 µg/mL (≈ 213 µM) | MIC [16]: 32 µg/mL (≈ 213 µM) | MIC [17]: 32 µg/mL (≈ 213 µM) | MIC [18]: 32 µg/mL (≈ 213 µM) | MIC [19]: 16 µg/mL (≈ 107 µM) | MIC [20]: 4 µg/mL (≈ 26.6 µM) | MIC [21]: 32 µg/mL (≈ 213 µM) | MIC [22]: 16 µg/mL (≈ 107 µM) | MIC [23]: 4 µg/mL (≈ 26.6 µM) | toxicity in treated mice [24]: no toxicity was observed | P24 values ([25]; compound 2.5 μg/ml, added to the cells after viral infection): 643 pg/mL | P24 values ([25]; compound 2.5 μg/ml, added to the cells before viral infection): 320 pg/mL | P24 values ([25]; compound 10 μg/ml, added to the cells after viral infection): 155 pg/mL | P24 values ([25]; compound 10 μg/ml, added to the cells before viral infection): 0 pg/mL | activity against Bacillus cereus (in words) [2]: only moderately active | MIC [5]: 0.5 µg/mL (≈ 3.33 µM) | MIC [6]: 2 µg/mL (≈ 13.3 µM) | MIC [7]: 1 µg/mL (≈ 6.66 µM) | MIC ([8]; 48 h): 2 µg/mL (≈ 13.3 µM) | MIC [9]: 0.5 µg/mL (≈ 3.33 µM) | MIC [10]: 1 µg/mL (≈ 6.66 µM) | MIC [11]: 4 µg/mL (≈ 26.6 µM) | MIC [12]: 4 µg/mL (≈ 26.6 µM) | MIC [13]: 4 µg/mL (≈ 26.6 µM) | MIC [14]: 1 µg/mL (≈ 6.66 µM)

COc1ccc(CN=C=S)cc1 [Compound 2, reference compound]
MIC [26]: 64 µg/mL (≈ 357 µM) | MIC [27]: 32 to 64 µg/mL (≈ 179 to 357 µM) | MIC [28]: 32 to 64 µg/mL (≈ 179 to 357 µM) | MIC ([15]; M. intracellularie, read-out: MIC): 32 µg/mL (≈ 179 µM) | MIC ([16]; M. avium, read-out: MIC): 32 µg/mL (≈ 179 µM) | MIC ([17]; M. scrofulaceum, read-out: MIC): 32 µg/mL (≈ 179 µM) | MIC ([18]; M. cansassi, read-out: MIC): 32 µg/mL (≈ 179 µM) | MIC ([19]; M. fortuitum, read-out: MIC): 32 µg/mL (≈ 179 µM) | MIC [20]: 8 µg/mL (≈ 44.6 µM) | MIC [21]: 32 µg/mL (≈ 179 µM) | MIC [22]: 32 µg/mL (≈ 179 µM) | MIC [23]: 8 µg/mL (≈ 44.6 µM) | MIC [29]: 32 to 64 µg/mL (≈ 179 to 357 µM) | MIC [30]: 64 µg/mL (≈ 357 µM) | MIC [31]: 64 µg/mL (≈ 357 µM) | MIC [32]: 32 µg/mL (≈ 179 µM) | MIC [33]: > 64 µg/mL | MIC [34]: 64 µg/mL (≈ 357 µM) | MIC [35]: 64 µg/mL (≈ 357 µM) | MIC [36]: > 64 µg/mL | MIC [37]: > 64 µg/mL | MIC [38]: 4 µg/mL (≈ 22.3 µM) | MIC [39]: 8 µg/mL (≈ 44.6 µM) | MIC [40]: > 64 µg/mL | MIC [41]: > 64 µg/mL | MIC [42]: > 64 µg/mL | MIC [43]: > 64 µg/mL | MIC [44]: > 64 µg/mL | MIC [45]: > 64 µg/mL | MIC [46]: > 64 µg/mL | MIC [47]: > 64 µg/mL | MIC [5]: 2 µg/mL (≈ 11.2 µM) | MIC [48]: 32 µg/mL (≈ 179 µM) | MIC [49]: 32 µg/mL (≈ 179 µM) | MIC [6]: 4 µg/mL (≈ 22.3 µM) | MIC [7]: 4 µg/mL (≈ 22.3 µM) | MIC ([8]; 48 h): 1 µg/mL (≈ 5.58 µM) | MIC [9]: 2 µg/mL (≈ 11.2 µM) | MIC [10]: 4 µg/mL (≈ 22.3 µM) | MIC [11]: 8 µg/mL (≈ 44.6 µM) | MIC [12]: 8 µg/mL (≈ 44.6 µM) | MIC [13]: 8 µg/mL (≈ 44.6 µM) | MIC [14]: < 1 µg/mL

S=C=NCc1ccncc1 [Compound 29]
General antimicrobial activity ([1]; semi-quantitative score from number of sensitive bacterial strains at 100 and 200 μM, deduced from number of sensitive bacterial species and average MIC): − | stability of the compound [50]: instability of the compound
